{"source": "patent US20250129119A1", "about": "“PEPTIDE HAVING ANTI-INFLAMMATORY ACTIVITY AND USE THEREOF” (CAREGEN CO., LTD., priority 2021, published 2025)", "type_in_all_cases": "cell-based", "key": {"[1]": {"tested_on": "TNF-α, COX2, IL-6 and IL-8 mRNA expression in human keratinocytes HaCaT", "assay": "RT-PCR of inflammatory gene mRNA in HaCaT keratinocytes stimulated with TNF-α and hIL-17A", "details": "peptide 5 μM and 50 μM, TNF-α 10 nM and hIL-17A 200 ng/mL, one hour, FIG. 6", "protocol": "In order to confirm the effect of the peptides of the present invention synthesized in Synthesis Example 1 on Th17-mediated inflammatory responses, the mRNA expression levels of TNF-α, COX2, IL-6, and IL-8 were measured by RT-PCR.\n(§1) Specifically, the number of human keratinocytes HaCaT (CLS Cell Lines Service)) was measured, and the cells were inoculated into a 24-well plate at a density of 3×10^5 cells/well, and cultured overnight. Next day, the medium was replaced with serum-free medium and the cells were cultured for 4 hours, and then treated with the peptide of the present invention (5 μM and 50 μM) and TNF-α (10 nM) and hIL-17A (200 ng/mL), which are Th17 type inflammation-inducing cytokines, used as a stimulant, and cultured for one additional hour.\nNext, cells were recovered after culture, and total RNA was extracted using an RNA extraction kit (Qiagen RNeasy kit), and after RNA quantification, cDNA was synthesized using a cDNA synthesis kit (Intron, Korea). A polymerase chain reaction (PCR) was performed by mixing a PCR premix (Intron, Korea), synthesized cDNA, and primers shown in [Table 3] below specific for each of the genes of TNF-α, COX2, IL-6, IL-8, and GAPDH. PCR products were electrophoresed on a 5% agarose gel and stained with ethidium bromide to confirm the mRNA expression levels of TNF-α, COX2, IL-6, and IL-8, which are genes associated with inflammation and autoimmune diseases."}, "[2]": {"tested_on": "COX2 and INFγ mRNA expression induced by LPS in splenocytes", "assay": "RT-PCR of inflammatory gene mRNA in LPS-stimulated splenocytes", "details": "mouse splenocytes; peptide 5 μM and 50 μM; LPS 2 μg/mL; 3 hours; FIG. 1", "protocol": "In order to confirm the effect of the peptides of the present invention synthesized in Synthesis Example 1 on the inflammatory response induced by LPS, the expression levels of mRNA of inflammatory cytokines COX2 and INFγ were measured by RT-PCR.\n(§2) Specifically, 6-7 week old mice (C57BL/6, Young Bio Co., Ltd.) were sacrificed to obtain spleens, which were crushed using a cell strainer, and then centrifuged along with serum-free RPMI-1640 medium. The supernatant was discarded and red blood cells (RBCs) were removed twice using RBC lysis buffer. Then, after washing the resultant with serum-free RPMI-1640 medium, an appropriate amount of serum-free RPMI-1640 medium was added. The number of mouse splenocytes was measured, and the cells were inoculated into a 24-well plate at a density of 1×10^7 cells/well, and cultured overnight. Next day, the medium was replaced with serum-free medium and the cells were cultured for 4 hours, and then treated with the peptide of the present invention (5 μM and 50 μM) and LPS (2 μg/mL), which is an inflammation-inducing substance, as a stimulant, and cultured for 3 additional hours.\nNext, cells were recovered after culture, and total RNA was extracted using an RNA extraction kit (Qiagen RNeasy kit), and after RNA quantification, cDNA was synthesized using a cDNA synthesis kit (Intron, Korea). […]"}, "[3]": {"tested_on": "iNOS and pJNK in human keratinocytes HaCaT", "assay": "Western blot of iNOS and pJNK in HaCaT keratinocytes stimulated with TNF-α and hIL-17A", "details": "peptide 5 μM and 50 μM, TNF-α 10 nM and hIL-17A 200 ng/mL, 24 hours, FIG. 7", "protocol": "In order to confirm the effect of the peptides of the present invention synthesized in Synthesis Example 1 on Th17-mediated inflammatory responses, the degree of phosphorylation of iNOS and pJNK, which are inflammation-inducing factors and signaling proteins, was measured by Western blot.\nas §1, with “[…]” for “3×10^5”, “cytokines,” for “cytokines, used”, “24” for “one”, “hours.” for “hour.”\nAfter cultivation, the cells were recovered to prepare a cell lysate, and a western blot was performed using antibodies against iNOS and pJNK (Cell Signaling Technology, USA) to confirm the patterns of protein expression."}, "[4]": {"tested_on": "secretion of INFγ induced by LPS, TGF-β, and IL-23 in splenocytes", "assay": "ELISA of INFγ secretion in splenocytes stimulated with LPS, TGF-β and IL-23", "details": "mouse splenocytes; peptide 5 μM and 50 μM; LPS 2 μg/mL, TGF-β 20 ng/mL, IL-23 20 ng/mL; 24 hours; FIG. 4", "protocol": "In order to confirm the effect of the peptides of the present invention synthesized in Synthesis Example 1 on the inflammatory response induced by LPS, TGF-β, and IL-23, the secretion amount of INFγ, which is an inflammatory cytokine, was measured by ELISA.\n(§3) Specifically, 6-7 week old mice (C57BL/6, Young Bio Co., Ltd.) were sacrificed to obtain spleens, which were crushed using a cell strainer, and then centrifuged with serum-free RPMI-1640 medium. The supernatant was discarded and red blood cells (RBCs) were removed twice using RBC lysis buffer. Then, after washing the resultant with serum-free RPMI-1640 medium, an appropriate amount of serum-free RPMI-1640 medium was added thereto. The number of mouse splenocytes was measured, and the cells were inoculated into a 24-well plate at a density of 1×10^7 cells/well, and cultured overnight. […]\nNext, the cell culture was recovered after cultivation, and the amount of secretion of INFγ, which is an inflammatory cytokine, was measured using an ELISA kit (Quantikine ELISA Kit, R&D System, USA) specific to INFγ, and the absorbance was measured using Spectramax M2 (Molecular Devices)."}, "[5]": {"tested_on": "secretion of IL-17 induced by TNF-α and IL-17A in splenocytes", "assay": "ELISA of IL-17 secretion in splenocytes stimulated with TNF-α and IL-17A", "details": "mouse splenocytes; peptide 5 μM and 50 μM; TNF-α 20 nM and IL-17A 200 ng/mL; 24 hours; FIG. 5", "protocol": "In order to confirm the effect of the peptides of the present invention synthesized in Synthesis Example 1 on the inflammatory response induced by TNF-α and IL-17A, the secretion amount of IL-17, which is an inflammatory cytokine, was measured by ELISA.\nas §3, with “mice” for “mice (C57BL/6, Young Bio Co., Ltd.)”\nNext, the cell culture was recovered after cultivation, and the amount of secretion of IL-17, which is an inflammatory cytokine, was measured using an ELISA kit (Quantikine ELISA Kit, R&D System, USA) specific to […], and the absorbance was measured using Spectramax M2 (Molecular Devices)."}, "[6]": {"tested_on": "secretion of TNF-α, IL-1β and INFγ induced by TNF-α in splenocytes", "assay": "ELISA of cytokine secretion in TNF-α-stimulated splenocytes", "details": "mouse splenocytes, peptide 5 μM and 50 μM, TNF-α 20 nM, 24 hours", "protocol": "In order to confirm the effect of the peptides of the present invention synthesized in Synthesis Example 1 on the inflammatory response induced by TNF-α, the secretion amounts of TNF-α, IL-1β, and INFγ, which are inflammatory cytokines, were measured by ELISA.\nas §2, with “centrifuged” for “centrifuged along”, “added thereto.” for “added.”, “TNF-α (20 nM),” for “LPS (2 μg/mL),”, “24” for “3”\nNext, the cell culture was recovered after cultivation, and the amounts of secretion of TNF-α, IL-1β, and INFγ, which are inflammatory cytokines, were measured using an ELISA kit (Quantikine ELISA Kit, R&D System, USA) specific to TNF-α, IL-1β, and INFγ, and the absorbance was measured using Spectramax M2 (Molecular Devices)."}, "[7]": {"tested_on": "secretion of TNF-α, IFN-γ and IL-17 induced by LPS in splenocytes", "assay": "ELISA of cytokine secretion in LPS-stimulated splenocytes", "details": "mouse splenocytes, peptide 5 μM and 50 μM, LPS 2 μg/mL, 24 hours", "protocol": "In order to confirm the effect of the peptides of the present invention synthesized in Synthesis Example 1 on the inflammatory response induced by LPS, the secretion amounts of inflammatory cytokines TNF-α, IL-17, and INFγ were measured by ELISA.\nas §2, with “centrifuged” for “centrifuged along”, “added thereto.” for “added.”, “24” for “3”\nNext, the cell culture was recovered after cultivation, and the amounts of secretion of IL-17, IFN-γ, and TNF-α, which are secretion markers during Th17 differentiation, were measured using an ELISA kit (Quantikine ELISA Kit, R&D System, USA) specific to IL-17, IFN-γ, and TNF-α, and the absorbance was measured using Spectramax M2 (Molecular Devices)."}}, "data": [{"sequence": "SVSVGMKPSPRP [peptide of the present invention]", "values": [{"measurement": "mRNA expression of COX2 (RT-PCR)", "setting": "[1]", "value": "significantly reduce"}, {"measurement": "mRNA expression of IL-6 (RT-PCR)", "setting": "[1]", "value": "significantly reduce"}, {"measurement": "mRNA expression of IL-8 (RT-PCR)", "setting": "[1]", "value": "significantly reduce"}, {"measurement": "mRNA expression of TNF-α (RT-PCR)", "setting": "[1]", "value": "significantly reduce"}, {"measurement": "mRNA expression of COX2 (RT-PCR)", "setting": "[2]", "value": "significantly reduce"}, {"measurement": "mRNA expression of INFγ (RT-PCR)", "setting": "[2]", "value": "significantly reduce"}, {"measurement": "iNOS protein expression (Western blot)", "setting": "[3]", "value": "reduce"}, {"measurement": "phosphorylation of JNK (Western blot)", "setting": "[3]", "value": "reduce"}, {"measurement": "secretion of INFγ (ELISA)", "setting": "[4]", "value": "significantly reduce"}, {"measurement": "secretion of IL-17 (ELISA)", "setting": "[5]", "value": "significantly reduce"}, {"measurement": "secretion of TNF-α (ELISA)", "setting": "[6]; FIG. 3A", "value": "significantly reduce"}, {"measurement": "secretion of IL-1β (ELISA)", "setting": "[6]; FIG. 3B", "value": "significantly reduce"}, {"measurement": "secretion of INFγ (ELISA)", "setting": "[6]; FIG. 3C", "value": "significantly reduce"}, {"measurement": "secretion of TNF-α (ELISA)", "setting": "[7]; FIG. 2A", "value": "significantly reduce"}, {"measurement": "secretion of IFN-γ (ELISA)", "setting": "[7]; FIG. 2B", "value": "significantly reduce"}, {"measurement": "secretion of IL-17 (ELISA)", "setting": "[7]; FIG. 2C", "value": "significantly reduce"}]}]}
